Reference: patent US5134137A, “Cephalosporin antibiotics” (The Upjohn Company, priority 1990, dated 1992)
In brackets after ≈: the same amount, converted by molar mass. Like-named read-outs stand apart in the source and are kept apart here.

Legend:
Format in all cases: cell-based
Salmonella choleraesuis = assay: MIC, agar dilution, Salmonella choleraesuis
Description: (§1) Stock solution of each test antibiotic compound were prepared to have a concentration of 2 mg. of the test compound per milliliter in sterile water of 0.1M ammonium acetate solution. The amount of each compound used was adjusted for base compound activity as calculated from the purity data for the selected batch of compound.
(§2) The dilution procedure described by Washington and Sutter [Manual of Clinical Microbiology, 3rd, Edit. (Lennett, E. H. et al, Eds.), pp. 453-458 (1980), American Society for Microbiology, Washington, D.C.] was modified so that serial concentrations of 128 to 0.0625 microgram/ml. in sterile water was obtained. Then 1.5 ml. aliquots of these test antibiotic dilution mixtures are added to 13.5 molten (50° C.) Mueller-Hinton agar. Each resulting mixture is poured into 15×100 mm, sterile Petri plates and allowed to dry at room temperature overnight.
(§3) Test bacterial cultures are maintained at -70° C. on glass beads. [See R. J. Yancey, Jr. et al, Amer. Jr. of Vet. Research, 48, No. 7, pp. 1050-1053, (1987)]. At least one bacteria-laden bead per culture is dropped into one ml. of brain heart infusion (BHI) broth for overnight culture at 37° C. in 5% V/V carbon dioxide in air atmosphere.
(§4) On the data of assay, 2 to 8 drops of the bacterial broth cultures are transferred to fresh BHI broth (1 ml.) and the mixture is incubated for 4 to 6 hours at 37° C. in a 5% V/V carbon dioxide in air atmosphere. The resulting cultures are then diluted to match a 0.5 MacFarland standard and further diluted 1:20 V/V with sterile saline solution.
(§5) A 0.001 ml. drop of the resulting mixture, containing approximately 10^3 to 10^4 colony forming units (CFU) of each test bacteria organism, is dispensed onto the surface of the test antibiotic compound test plates with a Steer's type replicator. The resulting innoculated plates are incubated 16 to 18 hours at 37° C. with a carbon dioxide atmosphere.
(§6) Stock solutions of each test antibiotic compound were prepared to have a concentration of 2 mg. of the test compound per milliliter in sterile water of 0.1M ammonium acetate solution. The amount of each compound used was adjusted for base compound activity as calculated from the purity data for the selected batch of compound.
(§7) The dilution procedure described by Washington and Sutter [Manual of Clinical Microbiology, 3rd, Edit. (Lennett, E. H. et al, Eds.), pp. 453-458 (1980), American Society for Microbiology, Washington, D.C.] was modified so that serial concentrations of 128 to 0.0625 microgram/ml. in sterile water was obtained. Then 1.5 ml. aliquots of these test antibiotic dilution mixtures are added to 13.5 molten (50° C.) Mueller-Hinton agar. Each resulting mixture is poured into 15×100 mm. sterile Petri plates and allowed to dry at room temperature overnight.
(§8) The dilution procedure described by Washington and Sutter [Manual of Clinical Microbiology, 3rd, Edit. (Lennett, E. H. et al, Eds.), pp. 453-458 (1980), American Society for Microbiology. Washington, D.C.] was modified so that serial concentrations of 128 to 0.0625 microgram/ml. in sterile water was obtained. Then 1.5 ml. aliquots of these test antibiotic dilution mixtures are added to 13.5 molten (50° C.) Mueller-Hinton agar. Each resulting mixture is poured into 15×100 mm. sterile Petri plates and allowed to dry at room temperature overnight.
(§9) Test bacterial culture are maintained at -70° C. on glass beads. [See R. J. Yancey, Jr. et al, Amer. Jr. of Vet. Research, 48, No. 7, pp. 1050-1053, (1987)]. At least one bacteria-laden bead per culture is dropped into one ml. of brain heart infusion (BHI) broth for overnight culture at 37° C. in 5% V/V carbon dioxide in air atmosphere.
(§10) On the day of assay, 2 to 8 drops of the bacterial broth cultures are transferred to fresh BHI broth (1 ml.) and the mixture is incubated for 4 to 6 hours at 37° C. in a 5% V/V carbon dioxide in air atmosphere. […]

Enterococcus faecium = assay: MIC, agar dilution, Enterococcus faecium; conditions: strain UC241
Description: as §6, §2, §3, §4, §5, §1, §7, §8, §9, §10

[1] = system: Bordetella bronchiseptica; assay: MIC, agar dilution, Bordetella bronchiseptica; conditions: strain UC6313
Description: as §1, §2, §3, §4, §5, §6, §7, §8, §9, §10

Streptococcus uberis = assay: MIC, agar dilution, Streptococcus uberis
Description: as §1, §2, §3, §4, §5, §6, §7, §8, §9, §10

Pseudomonas aeruginosa = assay: MIC, agar dilution, Pseudomonas aeruginosa; conditions: strain ATCC 27853
Description: as §1, §2, §3, §4, §5, §6, §7, §8, §9, §10

Micrococcus luteus = assay: MIC, agar dilution, Micrococcus luteus; conditions: strain UC130
Description: as §1, §2, §3, §4, §5, §6, §7, §8, §9, §10

Salmonella typhimurium = assay: MIC, agar dilution, Salmonella typhimurium
Description: as §1, §2, §3, §4, §5, §6, §7, §8, §9, §10

Streptococcus agalactiae = assay: MIC, agar dilution, Streptococcus agalactiae
Description: as §1, §2, §3, §4, §5, §6, §7, §8, §9, §10

Escherichia coli = assay: MIC, agar dilution, Escherichia coli
Description: as §1, §2, §3, §4, §5, §6, §7, §8, §9, §10

Pasteurella multocida = assay: MIC, agar dilution, Pasteurella multocida; conditions: strain UC9581
Description: as §1, §2, §3, §4, §5, §6, §7, §8, §9, §10

Streptococcus suis = assay: MIC, agar dilution, Streptococcus suis; conditions: strain 650-2
Description: as §1, §2, §3, §4, §5, §6, §7, §8, §9, §10

Enterococcus faecalis = assay: MIC, agar dilution, Enterococcus faecalis; conditions: strain UC694
Description: as §6, §2, §3, §4, §5, §1, §7, §8, §9, §10

[2] = system: Streptococcus dysgalactiae; assay: MIC, agar dilution, Streptococcus dysgalactiae; conditions: strain UC251
Description: as §1, §2, §3, §4, §5, §6, §7, §8, §9, §10

Pasteurella hemolytica = assay: MIC (minimum inhibitory concentration), agar dilution, Pasteurella hemolytica
Description: as §1, §2, §3, §4, §5, §6, §7, §8, §9, §10

Corynebacterium pyogenes = assay: MIC, agar dilution, Corynebacterium pyogenes; conditions: strain 213-2
Description: as §1, §2, §3, §4, §5, §6, §7, §8, §9, §10

Streptococcus bovis = assay: MIC, agar dilution, Streptococcus bovis; conditions: strain UC6281
Description: as §1, §2, §3, §4, §5, §6, §7, §8, §9, §10

Staphylococcus aureus = assay: MIC, agar dilution, Staphylococcus aureus
Description: as §1, §2, §3, §4, §5, §6, §7, §8, §9, §10

`CCCSSCC1=C(C(=O)O)N2C(=O)[C@@H](NC(=O)/C(=N\OC)c3csc(N)n3)[C@H]2SC1` [Example 11] showed an MIC (Salmonella choleraesuis; Salmonella enterica, CHOLERAESUIS / UC6073, strain UC6073, read-out: MIC) of 32 mg/L (≈ 63.5 µM), an MIC (Salmonella choleraesuis; Salmonella enterica, CHOLERAESUIS / UC6077, strain UC6077, read-out: MIC) of over 32 mg/L and an MIC (Enterococcus faecium; Enterococcus faecium, read-out: MIC) of over 32 mg/L. The MIC ([1]; Bordetella bronchiseptica, read-out: MIC) was 32 mg/L (≈ 63.5 µM), the MIC (Streptococcus uberis; Streptococcus uberis, strain UC3946, read-out: MIC) was 0.25 mg/L (≈ 0.496 µM) and the MIC (Streptococcus uberis; Streptococcus uberis, strain UC6159, read-out: MIC) was 16 mg/L (≈ 31.8 µM). It also gave an MIC (Pseudomonas aeruginosa; Pseudomonas aeruginosa, ATCC27853, read-out: MIC) of over 32 mg/L, an MIC (Micrococcus luteus; Micrococcus luteus, read-out: MIC) of 0.5 mg/L (≈ 0.993 µM) and an MIC (Salmonella typhimurium; Salmonella enterica, TYPHIMURIUM / UC6162, strain UC6162, read-out: MIC) of 16 mg/L (≈ 31.8 µM). The MIC (Salmonella typhimurium; Salmonella enterica, TYPHIMURIUM / UC6164, strain UC6164, read-out: MIC) was 32 mg/L (≈ 63.5 µM), the MIC (Streptococcus agalactiae; Streptococcus agalactiae, strain UC3947, read-out: MIC) was 2 mg/L (≈ 3.97 µM) and the MIC (Streptococcus agalactiae; Streptococcus agalactiae, strain UC6892, read-out: MIC) was over 32 mg/L. For the same compound, the MIC (Escherichia coli; Escherichia coli, strain UC3784, read-out: MIC) was 16 mg/L (≈ 31.8 µM), the MIC (Escherichia coli; Escherichia coli, strain UC6720, read-out: MIC) was 32 mg/L (≈ 63.5 µM) and the MIC (Escherichia coli; Escherichia coli, strain UC9670, read-out: MIC) was 16 mg/L (≈ 31.8 µM). For the same compound, the MIC (Pasteurella multocida; Pasteurella multocida, read-out: MIC) was 32 mg/L (≈ 63.5 µM), the MIC (Streptococcus suis; Streptococcus suis, read-out: MIC) was at most 0.06 mg/L and the MIC (Enterococcus faecalis; Enterococcus faecalis, read-out: MIC) was over 32 mg/L. The MIC ([2]; Streptococcus dysgalactiae, read-out: MIC) was at most 0.06 mg/L, the MIC (Pasteurella hemolytica; Pasteurella, strain UC6531, read-out: MIC) was 0.5 mg/L (≈ 0.993 µM) and the MIC (Pasteurella hemolytica; Pasteurella, strain UC6532, read-out: MIC) was 0.5 mg/L (≈ 0.993 µM). For the same compound, the MIC (Pasteurella hemolytica; Pasteurella, strain UC9582, read-out: MIC) was 0.5 mg/L (≈ 0.993 µM), the MIC (Corynebacterium pyogenes; read-out: MIC) was over 32 mg/L and the MIC (Streptococcus bovis; Streptococcus equinus, read-out: MIC) was over 32 mg/L. It also gave an MIC (Staphylococcus aureus; Staphylococcus aureus, strain UC6093, read-out: MIC) of 8 mg/L (≈ 15.9 µM), an MIC (Staphylococcus aureus; Staphylococcus aureus, strain UC6097, read-out: MIC) of 8 mg/L (≈ 15.9 µM) and an MIC (Staphylococcus aureus; Staphylococcus aureus, strain UC9203, read-out: MIC) of 8 mg/L (≈ 15.9 µM).
For `CCSSCC1=C(C(=O)O)N2C(=O)C(NC(=O)C(=NOC)c3csc(N)n3)C2SC1` (stereo not drawn) [Example 10, 7-[2-(2-amino-1,3-thiazol-4-yl)-2-(methoxyimino)acetamido]-3-ethyldithiomethyl-3-cephem-4-carboxylic acid], the MIC (Salmonella choleraesuis; strain UC6073) was 16 mg/L (≈ 32.7 µM), the MIC (Salmonella choleraesuis; strain UC6077) was 32 mg/L (≈ 65.4 µM) and the MIC (Enterococcus faecium) was 32 mg/L (≈ 65.4 µM). The MIC [1] was 16 mg/L (≈ 32.7 µM), the MIC (Streptococcus uberis; strain UC3946) was 0.25 mg/L (≈ 0.511 µM) and the MIC (Streptococcus uberis; strain UC6159) was over 32 mg/L. For the same compound, the MIC (Pseudomonas aeruginosa) was over 32 mg/L, the MIC (Micrococcus luteus) was 0.5 mg/L (≈ 1.02 µM) and the MIC (Salmonella typhimurium; strain UC6162) was 8 mg/L (≈ 16.3 µM). For the same compound, the MIC (Salmonella typhimurium; strain UC6164) was 8 mg/L (≈ 16.3 µM), the MIC (Streptococcus agalactiae; strain UC3947) was 2 mg/L (≈ 4.08 µM) and the MIC (Streptococcus agalactiae; strain UC6892) was over 32 mg/L. For the same compound, the MIC (Escherichia coli; strain UC3784) was 4 mg/L (≈ 8.17 µM), the MIC (Escherichia coli; strain UC6720) was 8 mg/L (≈ 16.3 µM) and the MIC (Escherichia coli; strain UC9670) was 4 mg/L (≈ 8.17 µM). It also gave an MIC (Pasteurella multocida) of 4 mg/L (≈ 8.17 µM), an MIC (Streptococcus suis) of at most 0.06 mg/L and an MIC (Enterococcus faecalis) of 32 mg/L (≈ 65.4 µM). It also gave an MIC [2] of at most 0.06 mg/L, an MIC (Pasteurella hemolytica; strain UC6531) of 0.25 mg/L (≈ 0.511 µM) and an MIC (Pasteurella hemolytica; strain UC6532) of 0.25 mg/L (≈ 0.511 µM). It also gave an MIC (Pasteurella hemolytica; strain UC9582) of 0.5 mg/L (≈ 1.02 µM), an MIC (Corynebacterium pyogenes) of 32 mg/L (≈ 65.4 µM) and an MIC (Streptococcus bovis) of over 32 mg/L. It also gave an MIC (Staphylococcus aureus; strain UC6093) of 4 mg/L (≈ 8.17 µM), an MIC (Staphylococcus aureus; strain UC6097) of 2 mg/L (≈ 4.08 µM) and an MIC (Staphylococcus aureus; strain UC9203) of 2 mg/L (≈ 4.08 µM).
